The target of assay [1] is T1, rat P2X7 (Rattus norvegicus (Rat), UniProt Q64663). Kind of assay: Radioligand binding, rat P2X7-1321N1 cell membranes, tritiated A-804598. As to conditions: rat P2X7-1321N1 membranes, tracer tritiated A-804598, 1 hour 4° C. As to the method: (§1) P2X7 Antagonism in Recombinant hP2X7 Cells: (a) Ca^2+ Flux (b) Radioligand Binding
(§2) (B) Radioligand binding: human or rat P2X7-1321N1 cells were collected and frozen @−80° C. On the day of the experiment, cell membrane preparations were made according to standard published methods. […] The compound can be prepared as described in the literature. […] The assay was terminated by filtration (GF/B filters pre-soaked with 0.3% PEI) and washed with washing buffer (Tris-HCl 50 mM). The IC50 generated in the binding assay was corrected for tracer concentration and affinity of the tracer to derive at the affinity (Ki) of the test compounds.

In assay [2] the target is T1, rat P2X7. Kind of assay: Ca2+ flux (FLIPR) in 1321N1 cells expressing recombinant rat P2X7 channel. To be noted: rat P2X7, 250 μM BzATP. Type of assay: cell-based. As to the method: as §1
(§3) (A) Ca^2+flux: 1321N1 cells expressing the recombinant human, rat or mouse P2X7 channel was cultured in HyQ DME/(HyClone/Dulbecco's Modified Eagle Medium) high glucose supplemented with 10% Fetal Bovine Serum (FBS) and appropriate selection marker. Cells were seeded at a density of 25000 cells/well (96-well clear bottom black walled plates) in 100 μl volume/well. On the day of the experiment, cell plates were washed with assay buffer, containing (in mM): 130 NaCl, 2 KCl, 1 CaCl2, 1 MgCl2, 10 HEPES, 5 glucose; pH 7.40 and 300 mOs. After the wash, cells were loaded with the Calcium-4 dye (Molecular Device) and incubated in the dark for 60 minutes. Test compounds were prepared at 250× the test concentration in neat DMSO. Intermediate 96-well compound plates were prepared by transferring 1.2 μL of the compound into 300 μL of assay buffer. A further 3× dilution occurred when transferring 50 μL/well of the compound plate to 100 μL/well in the cell plate. Cells were incubated with test compounds and dye for 30 minutes. […] The fluorescence change was measured 180 seconds after adding the agonist.

The target of assay [3] is T2, human P2X7 (Homo sapiens (Human), UniProt Q99572). In words: Radioligand binding, human P2X7-1321N1 cell membranes, tritiated A-804598. To be noted: human P2X7-1321N1 membranes, tracer tritiated A-804598, 1 hour 4° C. As to the method: as §1, §2
T2 sequence (Q99572 whole entry): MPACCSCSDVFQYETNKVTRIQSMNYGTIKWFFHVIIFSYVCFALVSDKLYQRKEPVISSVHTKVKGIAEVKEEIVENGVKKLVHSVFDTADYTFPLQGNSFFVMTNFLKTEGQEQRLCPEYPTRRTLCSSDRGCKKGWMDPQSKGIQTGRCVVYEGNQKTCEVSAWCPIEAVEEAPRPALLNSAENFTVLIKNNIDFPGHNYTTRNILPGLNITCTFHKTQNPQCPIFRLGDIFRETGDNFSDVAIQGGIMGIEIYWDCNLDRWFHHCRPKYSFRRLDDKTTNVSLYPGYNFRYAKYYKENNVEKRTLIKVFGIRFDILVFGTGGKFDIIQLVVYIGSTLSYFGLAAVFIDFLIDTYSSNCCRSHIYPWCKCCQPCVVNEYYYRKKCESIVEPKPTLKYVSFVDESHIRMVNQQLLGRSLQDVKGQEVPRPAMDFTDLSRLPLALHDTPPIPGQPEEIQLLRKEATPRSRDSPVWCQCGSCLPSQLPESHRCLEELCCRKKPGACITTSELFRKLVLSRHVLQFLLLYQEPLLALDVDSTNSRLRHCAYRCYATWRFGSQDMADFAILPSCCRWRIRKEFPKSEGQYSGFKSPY
Assay [4] has as its target T2, human P2X7. Kind of assay: Ca2+ flux (FLIPR) in 1321N1 cells expressing recombinant human P2X7 channel. Format: cell-based. To be noted: human P2X7, 250 μM BzATP. The procedure: as §1, §3
(In general: Calcium assays in cells follow changes in intracellular calcium, usually with a dye or a luminescent sensor.)

This is an account of results in patent US9102686B2, “5,6,7,8,9,10-hexahydro-6,10-epimino[1,2,4]triazolo[4,3-a]azocines as P2X7 modulators” (Janssen Pharmaceutica NV, priority 2013, dated 2015).

Some results are limits rather than exact numbers.

T1 sequence (Q64663 whole entry): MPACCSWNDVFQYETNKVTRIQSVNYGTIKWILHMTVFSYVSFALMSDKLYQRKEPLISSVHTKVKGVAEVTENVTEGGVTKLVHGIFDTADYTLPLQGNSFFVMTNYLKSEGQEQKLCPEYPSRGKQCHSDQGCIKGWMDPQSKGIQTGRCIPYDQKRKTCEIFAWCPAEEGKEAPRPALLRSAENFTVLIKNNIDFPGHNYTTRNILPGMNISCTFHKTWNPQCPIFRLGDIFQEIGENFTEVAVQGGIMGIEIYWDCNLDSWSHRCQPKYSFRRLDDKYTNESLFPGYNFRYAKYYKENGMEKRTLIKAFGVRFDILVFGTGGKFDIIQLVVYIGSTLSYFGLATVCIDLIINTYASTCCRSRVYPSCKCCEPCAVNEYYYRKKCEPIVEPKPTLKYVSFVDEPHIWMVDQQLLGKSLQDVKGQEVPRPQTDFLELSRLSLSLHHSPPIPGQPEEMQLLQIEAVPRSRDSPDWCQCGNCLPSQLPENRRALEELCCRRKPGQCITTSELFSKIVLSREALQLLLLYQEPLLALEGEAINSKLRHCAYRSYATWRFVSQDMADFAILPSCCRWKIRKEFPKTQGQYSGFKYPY

For the compound `Cc1c(C(=O)N2[C@H]3CC[C@@H]2c2nnc(-c4cscn4)n2C3)cccc1C(F)(F)F` [Example 53, (6S,9R)-10-{[2-Methyl-3-(trifluoromethyl)phenyl]carbonyl}-3-(1,3-thiazol-4-yl)-6,7,8,9-tetrahydro-5H-6,9-epimino[1,2,4]triazolo[4,3-a]azepine], the Ki (commonly the dissociation constant of the complex between target and ligand, obtained from inhibition or displacement) on rat P2X7 [1] was determined as 7.9 nM; on human P2X7 [3], 12.6 nM. Also, the IC50 (commonly the point on the concentration scale where inhibition reaches its midpoint) at rat P2X7 [2] worked out at 3860 nM; on human P2X7 [4] it was 3.1 nM.
The compound `O=C(c1cccc(C(F)(F)F)c1Cl)N1[C@H]2CC[C@@H]1c1nnc(-c3cccnc3)n1C2` [Example 48, (6S,9R)-10-{[2-Chloro-3-(trifluoromethyl)phenyl]carbonyl}-3-pyridin-3-yl-6,7,8,9-tetrahydro-5H-6,9-epimino[1,2,4]triazolo[4,3-a]azepine] returned an inhibitory constant (Ki) at human P2X7 [3] of 39.8 nM. The IC50 at human P2X7 [4] amounted to 13.2 nM.
For `O=C(c1cccc(C(F)(F)F)c1Cl)N1[C@H]2CC[C@@H]1c1nnc(-c3cnccn3)n1C2` [Example 42, (6S,9R)-10-{[2-Chloro-3-(trifluoromethyl)phenyl]carbonyl}-3-pyrazin-2-yl-6,7,8,9-tetrahydro-5H-6,9-epimino[1,2,4]triazolo[4,3-a]azepine], the Ki on rat P2X7 [1] worked out at 7.9 nM; at human P2X7 [3] it was 12.6 nM. The 50% inhibitory concentration (IC50) at rat P2X7 [2] amounted to 251 nM; on human P2X7 [4], 20 nM.
`O=C(c1cccc(C(F)(F)F)c1Cl)N1[C@H]2CC[C@@H]1c1nnc(-c3cccs3)n1C2` [Example 61, (6S,9R)-10-{[2-Chloro-3-(trifluoromethyl)phenyl]carbonyl}-3-thiophen-2-yl-6,7,8,9-tetrahydro-5H-6,9-epimino[1,2,4]triazolo[4,3-a]azepine]: the IC50 at rat P2X7 [2] was 10000 nM; on human P2X7 [4] it was 2.6 nM. In addition, the Ki at human P2X7 [3] came out at 4 nM.
As to `Cc1nc(-c2nnc3n2C[C@@H]2CC[C@H]3N2C(=O)c2cccc(C(F)(F)F)c2Cl)cs1` [Example 56, (6S,9R)-10-{[2-Chloro-3-(trifluoromethyl)phenyl]carbonyl}-3-(2-methyl-1,3-thiazol-4-yl)-6,7,8,9-tetrahydro-5H-6,9-epimino[1,2,4]triazolo[4,3-a]azepine], the 50% inhibitory concentration (IC50) at human P2X7 [4] stood at 30.8 nM.
For the compound `O=C(c1cccc(C(F)(F)F)c1Cl)N1[C@H]2CC[C@@H]1c1nnc(-c3ncccn3)n1C2` [Example 46, (6S,9R)-10-{[2-Chloro-3-(trifluoromethyl)phenyl]carbonyl}-3-pyrimidin-2-yl-6,7,8,9-tetrahydro-5H-6,9-epimino[1,2,4]triazolo[4,3-a]azepine], the Ki at rat P2X7 [1] is 6.3 nM; on human P2X7 [3] it was 15.8 nM. Also, the IC50 at rat P2X7 [2] came out at 253 nM; at human P2X7 [4], 15.2 nM.
On to `Cc1ncsc1-c1nnc2n1C[C@@H]1CC[C@H]2N1C(=O)c1cccc(C(F)(F)F)c1Cl` [Example 59, (6S,9R)-10-{[2-Chloro-3-(trifluoromethyl)phenyl]carbonyl}-3-(4-methyl-1,3-thiazol-5-yl)-6,7,8,9-tetrahydro-5H-6,9-epimino[1,2,4]triazolo[4,3-a]azepine], for which the figures for the 50% inhibitory concentration (IC50) at rat P2X7 [2] and on human P2X7 [4] were above 10000 nM and 100 nM, respectively. Further, the affinity at human P2X7 [3], expressed as Ki, was 126 nM.
At human P2X7 [3], `O=C(c1ccc(F)c(Cl)c1Cl)N1[C@H]2CC[C@@H]1c1nnc(-c3cnccn3)n1C2` [Example 47, (6S,9R)-10-[(2,3-Dichloro-4-fluorophenyl)carbonyl]-3-pyrazin-2-yl-6,7,8,9-tetrahydro-5H-6,9-epimino[1,2,4]triazolo[4,3-a]azepine] gave a Ki of 10 nM. For the same compound, the IC50 at human P2X7 [4] is 20.3 nM.
Consider `O=C(c1ccc(F)c(C(F)(F)F)c1Cl)N1[C@H]2CC[C@@H]1c1nnc(-c3cscn3)n1C2` [Example 52, (6S,9R)-10-{[2-Chloro-4-fluoro-3-(trifluoromethyl)phenyl]carbonyl}-3-(1,3-thiazol-4-yl)-6,7,8,9-tetrahydro-5H-6,9-epimino[1,2,4]triazolo[4,3-a]azepine], for which the Ki on rat P2X7 [1] came out at 6.3 nM; at human P2X7 [3] it was 31.6 nM. The values for the IC50 on rat P2X7 [2] and at human P2X7 [4] were 131 nM and 10.2 nM, respectively.
`O=C(c1cccc(C(F)(F)F)c1Cl)N1[C@H]2CC[C@@H]1c1nnc(-c3ccccn3)n1C2` [Example 41, (6S,9R)-10-{[2-Chloro-3-(trifluoromethyl)phenyl]carbonyl}-3-pyridin-2-yl-6,7,8,9-tetrahydro-5H-6,9-epimino[1,2,4]triazolo[4,3-a]azepine]: the inhibition constant Ki is 7.9 nM on rat P2X7 [1] and 12.6 nM at human P2X7 [3]. Further, the IC50 at rat P2X7 [2] was found to be 1580 nM; at human P2X7 [4], 6.3 nM.
As for `O=C(c1cccc(C(F)(F)F)c1Cl)N1[C@H]2CC[C@@H]1c1nnc(-c3cscn3)n1C2` [Example 49, (6S,9R)-10-{[2-Chloro-3-(trifluoromethyl)phenyl]carbonyl}-3-(1,3-thiazol-4-yl)-6,7,8,9-tetrahydro-5H-6,9-epimino[1,2,4]triazolo[4,3-a]azepine], the Ki at rat P2X7 [1] was 4 nM; on human P2X7 [3], 20 nM. Besides, the IC50 was 13.5 nM on rat P2X7 [2] and 5 nM on human P2X7 [4].
Regarding `O=C(c1ccnc(C(F)(F)F)c1Cl)N1[C@H]2CC[C@@H]1c1nnc(-c3ccc(Cl)s3)n1C2` [Example 60, (6S,9R)-3-(5-Chlorothiophen-2-yl)-10-{[3-chloro-2-(trifluoromethyl)pyridin-4-yl]carbonyl}-6,7,8,9-tetrahydro-5H-6,9-epimino[1,2,4]triazolo[4,3-a]azepine], the values for the IC50 at rat P2X7 [2] and at human P2X7 [4] were 2340 nM and 14.9 nM, respectively. Also, affinity at human P2X7 [3] was put at a Ki of 21.9 nM.
In the case of `Cc1cc(-c2nnc3n2C[C@@H]2CC[C@H]3N2C(=O)c2cccc(C(F)(F)F)c2Cl)[nH]n1` [Example 51, (6S,9R)-10-{[2-Chloro-3-(trifluoromethyl)phenyl]carbonyl}-3-(3-methyl-1H-pyrazol-5-yl)-6,7,8,9-tetrahydro-5H-6,9-epimino[1,2,4]triazolo[4,3-a]azepine], the Ki on rat P2X7 [1] is 7.9 nM; on human P2X7 [3], 39.8 nM. The IC50 on rat P2X7 [2] was found to be 4100 nM; on human P2X7 [4], 14.4 nM.
Turning to `O=C(c1cccc(C(F)(F)F)c1Cl)N1[C@H]2CC[C@@H]1c1nnc(-c3ccc(F)cn3)n1C2` [Example 45, (6S,9R)-10-{[2-Chloro-3-(trifluoromethyl)phenyl]carbonyl}-3-(5-fluoropyridin-2-yl)-6,7,8,9-tetrahydro-5H-6,9-epimino[1,2,4]triazolo[4,3-a]azepine], the Ki on human P2X7 [3] amounted to 12.6 nM. On human P2X7 [4], the IC50 worked out at 13.1 nM.
On to `O=C(c1ccc(Cl)c(F)c1Cl)N1[C@H]2CC[C@@H]1c1nnc(-c3cscn3)n1C2` [Example 54, (6S,9R)-10-[(2,4-Dichloro-3-fluorophenyl)carbonyl]-3-(1,3-thiazol-4-yl)-6,7,8,9-tetrahydro-5H-6,9-epimino[1,2,4]triazolo[4,3-a]azepine], for which the Ki came to 7.9 nM on rat P2X7 [1] and 25.1 nM on human P2X7 [3]. Moreover, the IC50 was determined as 8910 nM on rat P2X7 [2] and 6.1 nM at human P2X7 [4].
Compound `O=C(c1cccc(C(F)(F)F)c1Cl)N1[C@H]2CC[C@@H]1c1nnc(-c3ccc(Cl)s3)n1C2` [Example 55, (6S,9R)-3-(5-Chlorothiophen-2-yl)-10-{[2-chloro-3-(trifluoromethyl)phenyl]carbonyl}-6,7,8,9-tetrahydro-5H-6,9-epimino[1,2,4]triazolo[4,3-a]azepine] gave a Ki on human P2X7 [3] of 25.1 nM. In addition, the IC50 at human P2X7 [4] worked out at 17.1 nM.
For `O=C(c1cccc(C(F)(F)F)c1Cl)N1[C@H]2CC[C@@H]1c1nnc(-c3cncs3)n1C2` [Example 57, (6S,9R)-10-{[2-Chloro-3-(trifluoromethyl)phenyl]carbonyl}-3-(1,3-thiazol-5-yl)-6,7,8,9-tetrahydro-5H-6,9-epimino[1,2,4]triazolo[4,3-a]azepine], the IC50 on rat P2X7 [2] was above 10000 nM; at human P2X7 [4] it was 97.7 nM. This compound yielded an inhibition constant Ki at human P2X7 [3] of 35.5 nM.
Taken in the same sequence, the figures for `O=C(c1cccc(C(F)(F)F)c1Cl)N1[C@H]2CC[C@@H]1c1nnc(-c3ccc[nH]3)n1C2` [Example 62, (6S,9R)-10-{[2-Chloro-3-(trifluoromethyl)phenyl]carbonyl}-3-(1H-pyrrol-2-yl)-6,7,8,9-tetrahydro-5H-6,9-epimino[1,2,4]triazolo[4,3-a]azepine] were above 10000 nM, 19.6 nM and 6.3 nM.
Consider `O=C(c1cccc(C(F)(F)F)c1Cl)N1[C@H]2CC[C@@H]1c1nnc(-c3ccsc3)n1C2` [Example 58, (6S,9R)-10-{[2-Chloro-3-(trifluoromethyl)phenyl]carbonyl}-3-thiophen-3-yl-6,7,8,9-tetrahydro-5H-6,9-epimino[1,2,4]triazolo[4,3-a]azepine], for which the IC50 worked out at 713 nM at rat P2X7 [2] and 1.7 nM on human P2X7 [4]. The compound also had a Ki on human P2X7 [3] of 10 nM.
